In ChEMBL document CHEMBL4725309, “Potent, non-covalent reversible BTK inhibitors with 8-amino-imidazo[1,5-a]pyrazine core featuring 3-position bicyclic ring substitutes” (Bioorg Med Chem Lett, 2020):

Legend:
[1] = target: T1, Tyrosine-protein kinase BTK (Homo sapiens, UniProt Q06187); assay: Inhibition of BTK in human PBMC assessed as reduction in cell surface CD69 expression preincubated for 1 hr followed by stimulation with goat anti-human IgM F(ab')2 for 18 hrs by immunostaining analysis; assay type: tissue-based
[2] = target: T1, Tyrosine-protein kinase BTK; assay: Inhibition of BTK in human whole blood assessed as reduction in cell surface CD69 expression preincubated for 1 hr followed by stimulation with anti-CD79b for 3 hrs by immunostaining analysis; assay type: tissue-based
[3] = target: T1, Tyrosine-protein kinase BTK; assay: Inhibition of recombinant full length BTK (unknown origin) expressed in baculovirus infected Sf9 cells using Biotin-EQEDEPEGDYFEWLE-NH2 peptide as substrate incubated for 60 mins followed by further incubation with substrate and ATP for 120 mins by TR-FRET assay
[4] = Volume of distribution at steady state in Wistar Han rat at 2 mg/kg, iv; assay type: ADME, organism-based; conditions: in vivo, read-out: Vdss
[5] = Tmax in Wistar Han rat at 5 mg/kg, po; assay type: ADME, organism-based; conditions: in vivo
[6] = Half life in Wistar Han rat at 2 mg/kg, iv; assay type: ADME, organism-based; conditions: in vivo
[7] = AUC in Wistar Han rat at 2 mg/kg, iv; assay type: ADME, organism-based; design: dose 2 mg/kg; conditions: in vivo
[8] = Cmax in Wistar Han rat at 5 mg/kg, po; assay type: ADME, organism-based; design: route oral, dose 5 mg/kg; conditions: in vivo
[9] = Clearance in Wistar Han rat at 2 mg/kg, iv; assay type: ADME, organism-based; conditions: in vivo
[10] = Oral bioavailability in Wistar Han rat at 5 mg/kg; assay type: ADME, organism-based; conditions: Wistar Han, in vivo

T1 sequence (Q06187 whole entry): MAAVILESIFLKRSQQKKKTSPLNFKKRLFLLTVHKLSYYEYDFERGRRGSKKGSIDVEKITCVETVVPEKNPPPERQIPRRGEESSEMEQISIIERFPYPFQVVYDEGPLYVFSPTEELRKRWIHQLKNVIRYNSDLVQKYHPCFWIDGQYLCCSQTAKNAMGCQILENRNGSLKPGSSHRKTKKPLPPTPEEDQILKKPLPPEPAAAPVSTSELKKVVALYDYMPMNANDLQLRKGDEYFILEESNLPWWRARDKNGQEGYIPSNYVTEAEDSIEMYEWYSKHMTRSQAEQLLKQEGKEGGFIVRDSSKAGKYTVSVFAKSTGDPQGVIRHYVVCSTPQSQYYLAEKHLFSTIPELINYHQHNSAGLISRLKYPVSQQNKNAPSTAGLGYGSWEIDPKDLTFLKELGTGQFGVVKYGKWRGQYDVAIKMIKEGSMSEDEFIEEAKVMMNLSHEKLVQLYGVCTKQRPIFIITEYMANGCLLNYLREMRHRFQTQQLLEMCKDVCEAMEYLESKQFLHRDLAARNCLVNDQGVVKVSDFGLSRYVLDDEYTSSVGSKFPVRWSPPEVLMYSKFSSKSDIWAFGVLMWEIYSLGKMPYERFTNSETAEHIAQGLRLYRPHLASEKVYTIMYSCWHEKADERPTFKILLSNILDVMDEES

IC50 [1]	IC50 [2]	IC50 [3]	Compound	also measured
4 nM	101 nM	–	Nc1nccn2c([C@@H]3CC[C@H]4CCC(=O)N4C3)nc(-c3ccc(C(=O)Nc4cc(C(F)(F)F)ccn4)cc3F)c12	–
41 nM	–	–	CC(C)Oc1cc(C(=O)Nc2cc(C(F)(F)F)ccn2)ccc1-c1nc([C@@H]2CC[C@H]3CCC(=O)N3C2)n2ccnc(N)c12	–
20 nM	415 nM	–	Nc1nccn2c([C@@H]3CC[C@H]4CCC(=O)N4C3)nc(-c3ccc(C(=O)Nc4cc(C(F)(F)F)ccn4)cc3OC(F)F)c12	–
> 3000 nM	–	> 1000 nM	Nc1nccn2c([C@@H]3CC[C@H]4CCC(=O)N4C3)nc(-c3ccc(C(=O)Nc4cc(C(F)(F)F)ccn4)cc3C(F)(F)F)c12	–
1410 nM	–	–	Nc1nccn2c([C@@H]3CC[C@H]4CCC(=O)N4C3)nc(-c3ccc(C(=O)Nc4cc(C(F)(F)F)ccn4)cc3C(=O)O)c12	–

Second part, the molecule before the results:

Compound	IC50 [1]	IC50 [2]	IC50 [3]	also measured
C[C@@H]1OC(=O)N2C[C@H](c3nc(-c4ccc(C(=O)Nc5cc(C(F)(F)F)ccn5)cc4)c4c(N)nccn34)CC[C@@H]12	4.9 nM	86 nM	0.13 nM	–
Nc1nccn2c([C@@H]3CC[C@H]4CCC(=O)N4C3)nc(-c3ccc(C(=O)Nc4cc(C(F)(F)F)ccn4)cc3Oc3ccccc3)c12	310 nM	–	11 nM	–
Nc1nccn2c([C@@H]3CC[C@H]4CCC(=O)N4C3)nc(-c3ccc(C(=O)Nc4cc(C(F)(F)F)ccn4)cc3OC(F)(F)F)c12	74 nM	–	10 nM	–
Nc1nccn2c([C@@H]3CC[C@H]4CCCN4C3)nc(-c3ccc(C(=O)Nc4cc(C(F)(F)F)ccn4)cc3)c12	39 nM	204 nM	–	–
Nc1nccn2c([C@@H]3CC[C@H]4CCC(=O)N4C3)nc(-c3ccc(C(=O)Nc4cc(C(F)(F)F)ccn4)cc3OC3CC3)c12	–	–	–	Vd [4]: 4.2 L/kg; Tmax [5]: 3.5 h; half-life [6]: 2.3 h; AUC [7]: 1.4 µM·h; Cmax [8]: 140 nM; clearance [9]: 42 mL/min/kg; bioavailability [10]: 14%
Nc1nccn2c([C@H]3CN4C(=O)OC[C@@H]4CO3)nc(-c3ccc(C(=O)Nc4cc(C(F)(F)F)ccn4)cc3)c12	582 nM	–	25 nM	–
Nc1nccn2c([C@H]3CN4C(=O)CC[C@@H]4CO3)nc(-c3ccc(C(=O)Nc4cc(C(F)(F)F)ccn4)cc3)c12	7.2 nM	263 nM	–	–
